Some test systems named below: UACC-257 melanoma; NCI-H522 lung; A498 renal; SK-MEL-5 melanoma; MOLT-4 leukemia; KM20L2 colon; K-562 leukemia; NCI/ADR-RES ovarian; HOP-18 NSCLC; SNB-78 CNS; HOP-92 NSCLC.
Holding throughout (test): NCI-60 cell line screen, 48 h

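Method: 48-hour compound exposure of cells in 96-well plates, five concentrations, linear interpolation of endpoints. At the TGI there is no net growth.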

`CC(=O)O[C@H]1CC[C@@]2(C)[C@H](CC[C@@H]3[C@@H]2CC[C@]2(C)[C@@H](c4ccc(=O)oc4)C[C@H]4O[C@]342)C1`: the TGI turned out to be 6.89 µM with UACC-257 melanoma; 1.23 µM in the experiment on NCI-H522 lung; 4.96 µM in the experiment with A498 renal; 1.51 µM in the experiment with SK-MEL-5 melanoma; 0.556 µM in the experiment on MOLT-4 leukemia; 12.5 µM in the experiment with KM20L2 colon. The TGI in the experiment with K-562 leukemia was determined as 13 µM; in the experiment on NCI/ADR-RES ovarian it was 3.82 µM; in the experiment with HOP-18 NSCLC it was 9.72 µM; with SNB-78 CNS, 4.8 µM; in the experiment on HOP-92 NSCLC, 3.67 µM.
On to `Cc1csc(NC(=NCCN2CCOCC2)Nc2nc(C)cs2)n1`, for which the TGI with UACC-257 melanoma, in the experiment on NCI-H522 lung, with A498 renal, with SK-MEL-5 melanoma, in the experiment on MOLT-4 leukemia and in the experiment with KM20L2 colon was over 100 µM in each case. The TGI in the experiment with K-562 leukemia, in the experiment on NCI/ADR-RES ovarian, with HOP-18 NSCLC, with SNB-78 CNS and in the experiment on HOP-92 NSCLC was over 100 µM throughout.
As to `O=C1C=CC(=O)c2c(Cl)ccc(O)c21`, the TGI with UACC-257 melanoma is 29.8 µM; in the experiment with NCI-H522 lung it was 26.8 µM; with A498 renal it was over 100 µM; in the experiment on SK-MEL-5 melanoma, 33.1 µM; with MOLT-4 leukemia, 23.2 µM; with KM20L2 colon, 18.5 µM. Besides, the TGI is over 74 µM in the experiment on K-562 leukemia; 42.1 µM with NCI/ADR-RES ovarian; 33.4 µM in the experiment on HOP-18 NSCLC; 41.2 µM with SNB-78 CNS; 6.96 µM with HOP-92 NSCLC.

These data come from PubChem BioAssay (NCI).
